Tests used:
Assay type in all cases: in vivo
[1] = test system: Beta vulgaris ssp. vulgaris; test: Test Example 4: effect on crop by application to foliage (diluvial soil, plastic box); details: 320 g/ha; for f (Beta vulgaris ssp. vulgaris) effect on crop grade: foliage application
Summary of the method: (§1)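 Greenhouse plants (25° C. to 30° C., 14 d, diluvial soil) receive a foliar spray of water-diluted emulsifiable formulation at defined g/ha. Grading after 3 weeks uses a six-step herbicidal-ratio scale, with 4 covering 70% to <90% and 1 covering 5% to <20%.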

Brassica campestris L. = test: as above; details: 320 g/ha; for g (Brassica campestris L.) effect on crop grade: foliage application
Summary of the method: as §1

[2] = test system: directly sowed Oryza sativa; test: as above; details: 320 g/ha; for d (directly sowed Oryza sativa) effect on crop grade: foliage application
Summary of the method: as §1

Zea mays = test: as above; details: 320 g/ha; for b (Zea mays) effect on crop grade: foliage application
Summary of the method: as §1

Triticum aestivum = test: as above; details: 320 g/ha; for e (Triticum aestivum) effect on crop grade: foliage application
Summary of the method: as §1

Glycine max = test: as above; details: 320 g/ha; for c (Glycine max) effect on crop grade: foliage application
Summary of the method: as §1

Cyperus difformis = test: Test Example 3: herbicidal effect by application to foliage (Wagner pot, water depth 0.1-0.5 cm); details: Nineteenth Table; application to foliage; application herbicide amount 320 g/ha
Summary of the method: (§2)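 Grading uses six bands of herbicidal ratio, from 0 (≤5%, almost no effect) to 5 (≥90%, almost completely withered). Treatment was a stem-and-leaf spray of diluted emulsion at a fixed g/ha on 14-day-old plants; evaluation after three weeks.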

Leptochloa chinensis = test: as above; details: Nineteenth Table; application to foliage; application herbicide amount 320 g/ha
Summary of the method: as §2

[3] = test system: Echinochloa crus-galli var. crus-galli; test: as above; details: Nineteenth Table; application to foliage; application herbicide amount 320 g/ha
Summary of the method: as §2

Chenopodium album = test: Test Example 4: herbicidal effect by application to foliage (diluvial soil, plastic box); details: 320 g/ha; for O (Chenopodium album) herbicidal effect grade: foliage application
Summary of the method: as §1

Digitaria ciliaris = test: as above; details: 320 g/ha; for F (Digitaria ciliaris) herbicidal effect grade: foliage application
Summary of the method: as §1

Veronica persica = test: as above; details: 320 g/ha; for R (Veronica persica) herbicidal effect grade: foliage application
Summary of the method: as §1

Apera spica-venti. = test: as above; details: 320 g/ha; for L (Apera spica-venti.) herbicidal effect grade: foliage application
Summary of the method: as §1

Galium spurium = test: as above; details: 320 g/ha; for Q (Galium spurium) herbicidal effect grade: foliage application
Summary of the method: as §1

[4] = test system: Echinochloa crus-galli var. crus-galli; test: as above; details: 320 g/ha; for H (Echinochloa crus-galli var. crus-galli) herbicidal effect grade: foliage application
Summary of the method: as §1

Abutilon theophrasti = test: as above; details: 320 g/ha; for M (Abutilon theophrasti) herbicidal effect grade: foliage application
Summary of the method: as §1

Alopecurus myosuroides = test: as above; details: 320 g/ha; for J (Alopecurus myosuroides) herbicidal effect grade: foliage application
Summary of the method: as §1

Setaria viridis = test: as above; details: 320 g/ha; for G (Setaria viridis) herbicidal effect grade: foliage application
Summary of the method: as §1

Lolium multiflorum Lam. = test: as above; details: 320 g/ha; for K (Lolium multiflorum Lam.) herbicidal effect grade: foliage application
Summary of the method: as §1

Avena fatua = test: as above; details: 320 g/ha; for I (Avena fatua) herbicidal effect grade: foliage application
Summary of the method: as §1

Amaranthus retroflexus = test: as above; details: 320 g/ha; for N (Amaranthus retroflexus) herbicidal effect grade: foliage application
Summary of the method: as §1

Stellaria media = test: as above; details: 320 g/ha; for P (Stellaria media) herbicidal effect grade: foliage application
Summary of the method: as §1

SMILES | E (herbicidal effect grade) (Cyperus difformis) | D (herbicidal effect grade) (Leptochloa chinensis) | H (herbicidal effect grade) [3] | f (Beta vulgaris ssp. vulgaris) effect on crop grade [1] | g (Brassica campestris L.) effect on crop grade (Brassica campestris L.) | d (directly sowed Oryza sativa) effect on crop grade [2] | b (Zea mays) effect on crop grade (Zea mays) | e (Triticum aestivum) effect on crop grade (Triticum aestivum) | c (Glycine max) effect on crop grade (Glycine max) | O (Chenopodium album) herbicidal effect grade (Chenopodium album) | F (Digitaria ciliaris) herbicidal effect grade (Digitaria ciliaris) | R (Veronica persica) herbicidal effect grade (Veronica persica) | L (Apera spica-venti.) herbicidal effect grade (Apera spica-venti.) | Q (Galium spurium) herbicidal effect grade (Galium spurium) | H (Echinochloa crus-galli var. crus-galli) herbicidal effect grade [4] | M (Abutilon theophrasti) herbicidal effect grade (Abutilon theophrasti) | J (Alopecurus myosuroides) herbicidal effect grade (Alopecurus myosuroides) | G (Setaria viridis) herbicidal effect grade (Setaria viridis) | K (Lolium multiflorum Lam.) herbicidal effect grade (Lolium multiflorum Lam.) | I (Avena fatua) herbicidal effect grade (Avena fatua) | further results
Cn1nnnc1NC(=O)c1ccc(C(F)(F)F)n2c(SCc3ccccc3)nnc12 [2-076] | 4 (Herbicidal ratio of 70% or more and less than 90%) | 4 (Herbicidal ratio of 70% or more and less than 90%) | 5 (Herbicidal ratio of 90% or more (almost completely withered)) |  |  |  |  |  |  |  |  |  |  |  |  |  |  |  |  |  | effect on crop, f (Beta vulgaris ssp. vulgaris) ([1]; application to foliage): 5 (Herbicidal ratio of 90% or more (almost completely withered)); effect on crop, g (Brassica campestris L.) (Brassica campestris L.; application to foliage): 4 (Herbicidal ratio of 70% or more and less than 90%); effect on crop, d (directly sowed Oryza sativa) ([2]; application to foliage): 1 (Herbicidal ratio of 5% or more and less than 20%); effect on crop, b (Zea mays) (Zea mays; application to foliage): 1 (Herbicidal ratio of 5% or more and less than 20%); effect on crop, e (Triticum aestivum) (Triticum aestivum; application to foliage): 0 (Herbicidal ratio of 5% or less (almost no effect)); effect on crop, c (Glycine max) (Glycine max; application to foliage): 0 (Herbicidal ratio of 5% or less (almost no effect)); herbicidal effect, O (Chenopodium album) (Chenopodium album; application to foliage): 5 (Herbicidal ratio of 90% or more (almost completely withered)); herbicidal effect, F (Digitaria ciliaris) (Digitaria ciliaris; application to foliage): 3 (Herbicidal ratio of 40% or more and less than 70%); herbicidal effect, R (Veronica persica) (Veronica persica; application to foliage): 5 (Herbicidal ratio of 90% or more (almost completely withered)); herbicidal effect, L (Apera spica-venti.) (Apera spica-venti.; application to foliage): 2 (Herbicidal ratio of 20% or more and less than 40%); herbicidal effect, Q (Galium spurium) (Galium spurium; application to foliage): 3 (Herbicidal ratio of 40% or more and less than 70%); herbicidal effect, H (Echinochloa crus-galli var. crus-galli) ([4]; application to foliage): 5 (Herbicidal ratio of 90% or more (almost completely withered)); herbicidal effect, M (Abutilon theophrasti) (Abutilon theophrasti; application to foliage): 4 (Herbicidal ratio of 70% or more and less than 90%); herbicidal effect, J (Alopecurus myosuroides) (Alopecurus myosuroides; application to foliage): 1 (Herbicidal ratio of 5% or more and less than 20%); herbicidal effect, G (Setaria viridis) (Setaria viridis; application to foliage): 3 (Herbicidal ratio of 40% or more and less than 70%); herbicidal effect, K (Lolium multiflorum Lam.) (Lolium multiflorum Lam.; application to foliage): 1 (Herbicidal ratio of 5% or more and less than 20%); herbicidal effect, I (Avena fatua) (Avena fatua; application to foliage): 1 (Herbicidal ratio of 5% or more and less than 20%); herbicidal effect, N (Amaranthus retroflexus) (Amaranthus retroflexus; application to foliage): 5 (Herbicidal ratio of 90% or more (almost completely withered)); herbicidal effect, P (Stellaria media) (Stellaria media; application to foliage): 5 (Herbicidal ratio of 90% or more (almost completely withered))
COC(=O)Cn1nnnc1NC(=O)c1ccc(C(F)(F)F)n2c(C(C)C)nnc12 [2-046] | 3 (Herbicidal ratio of 40% or more and less than 70%) | 3 (Herbicidal ratio of 40% or more and less than 70%) | 2 (Herbicidal ratio of 20% or more and less than 40%) | 2 (Herbicidal ratio of 20% or more and less than 40%) | 0 (Herbicidal ratio of 5% or less (almost no effect)) | 0 (Herbicidal ratio of 5% or less (almost no effect)) | 0 (Herbicidal ratio of 5% or less (almost no effect)) | 0 (Herbicidal ratio of 5% or less (almost no effect)) | 0 (Herbicidal ratio of 5% or less (almost no effect)) | 4 (Herbicidal ratio of 70% or more and less than 90%) | 0 (Herbicidal ratio of 5% or less (almost no effect)) | 1 (Herbicidal ratio of 5% or more and less than 20%) | 0 (Herbicidal ratio of 5% or less (almost no effect)) | 1 (Herbicidal ratio of 5% or more and less than 20%) | 3 (Herbicidal ratio of 40% or more and less than 70%) | 4 (Herbicidal ratio of 70% or more and less than 90%) | 0 (Herbicidal ratio of 5% or less (almost no effect)) | 1 (Herbicidal ratio of 5% or more and less than 20%) | 0 (Herbicidal ratio of 5% or less (almost no effect)) | 0 (Herbicidal ratio of 5% or less (almost no effect)) | N (Amaranthus retroflexus) herbicidal effect grade (Amaranthus retroflexus): 4 (Herbicidal ratio of 70% or more and less than 90%); P (Stellaria media) herbicidal effect grade (Stellaria media): 2 (Herbicidal ratio of 20% or more and less than 40%)
CCS(=O)(=O)c1nnc2c(C(=O)Nc3nnnn3C)ccc(C(F)(F)F)n12 [2-038] | 5 (Herbicidal ratio of 90% or more (almost completely withered)) | 5 (Herbicidal ratio of 90% or more (almost completely withered)) | 5 (Herbicidal ratio of 90% or more (almost completely withered)) | 5 (Herbicidal ratio of 90% or more (almost completely withered)) | 5 (Herbicidal ratio of 90% or more (almost completely withered)) | 5 (Herbicidal ratio of 90% or more (almost completely withered)) | 5 (Herbicidal ratio of 90% or more (almost completely withered)) | 5 (Herbicidal ratio of 90% or more (almost completely withered)) | 5 (Herbicidal ratio of 90% or more (almost completely withered)) | 5 (Herbicidal ratio of 90% or more (almost completely withered)) | 5 (Herbicidal ratio of 90% or more (almost completely withered)) | 5 (Herbicidal ratio of 90% or more (almost completely withered)) | 5 (Herbicidal ratio of 90% or more (almost completely withered)) | 5 (Herbicidal ratio of 90% or more (almost completely withered)) | 5 (Herbicidal ratio of 90% or more (almost completely withered)) | 5 (Herbicidal ratio of 90% or more (almost completely withered)) | 5 (Herbicidal ratio of 90% or more (almost completely withered)) | 5 (Herbicidal ratio of 90% or more (almost completely withered)) | 5 (Herbicidal ratio of 90% or more (almost completely withered)) | 5 (Herbicidal ratio of 90% or more (almost completely withered)) | N (Amaranthus retroflexus) herbicidal effect grade (Amaranthus retroflexus): 5 (Herbicidal ratio of 90% or more (almost completely withered)); P (Stellaria media) herbicidal effect grade (Stellaria media): 5 (Herbicidal ratio of 90% or more (almost completely withered))

— patent US9708314B2, “Heterocyclic amide compound” (NISSAN CHEMICAL INDUSTRIES, LTD., priority 2013, dated 2017)
